Results on 7 molecules are retold here after patent publication US7820708B2, “Carboxamides” (Bayer CropScience AG, priority 2005, dated 2010).

A short description of data set [1]: log P determination by HPLC on reversed-phase column (C 18), EEC Directive 79/831 Annex V.A8. The format is physicochemical. Particulars: reversed-phase HPLC column (C 18); pH 2.3; 0.1% aqueous phosphoric acid and acetonitrile; 43° C. How it is done: The log P values given in the Tables and Preparation Examples above are determined in accordance with EEC Directive 79/831 Annex V.A8 by HPLC (High Performance Liquid Chromatography) on a reversed-phase column (C 18). Temperature: 43° C. The determination is carried out in the acidic range at pH 2.3 using the mobile phases 0.1% aqueous phosphoric acid and acetonitrile; linear gradient from 10% acetonitrile to 90% acetonitrile. Calibration is carried out using unbranched alkan-2-ones (having 3 to 16 carbon atoms) with known log P values (determination of the log P values by the retention times using linear interpolation between two successive alkanones).

Data set [2] has as its system Alternaria solani. Put plainly: Alternaria test (tomato)/protective. The format is in vivo. Particulars: protective, application rate 1000 ppm, evaluation 7 days after inoculation. On the procedure: (§1) To produce a suitable preparation of active compound, 1 part by weight of active compound is mixed with the stated amounts of solvent and emulsifier and the concentrate is diluted with water to the desired concentration.
To test for protective activity, young tomato plants are sprayed with the active compound preparation at the stated application rate. 1 day after the treatment, the plants are inoculated with a spore suspension of Alternaria solani and then remain at 100% relative atmospheric humidity and 20° C. for 24 h. The plants then remain at 96% relative atmospheric humidity and a temperature of 20° C.
Evaluation is carried out 7 days after the inoculation. 0% means an efficacy which corresponds to that of the control, whereas an efficacy of 100% means that no infection is observed.

The subject of data set [3] is Uromyces appendiculatus. Put plainly: Uromyces test (bean)/protective. The format is in vivo. Particulars: protective, application rate 100 ppm, evaluation 10 days after inoculation. On the procedure: To produce a suitable preparation of active compound, 1 part by weight of active compound is mixed within the stated amounts of solvents and emulsifier and the concentrate is diluted with water to the desired concentration.
To test for protective activity, the young plants are sprayed with the active compound preparation at the stated application rate. After the spray coating has dried on, the plants are inoculated with an aqueous spore suspension of the bean rust pathogen Uromyces appendiculatus and then remain in an incubation cabin at about 20° C. and 100% relative atmospheric humidity for 1 day. The plants are then placed in a greenhouse at about 21° C. and a relative atmospheric humidity of about 90%.
Evaluation is carried out 10 days after the inoculation. 0% means an efficiency which corresponds to that of the control, whereas an efficacy of 100% means that no infection is observed.

Data set [4] has as its system Pyrenophora teres. Put plainly: Pyrenophora teres test (barley)/protective. Conditions: protective, application rate 500 ppm, evaluation 8 days after inoculation. In kind it is in vivo. On the procedure:
as §1
To test for protective activity, young plants are sprayed with the active compound preparation at the stated application rate. After the spray coating has dried on, the plants are sprayed with a conidia suspension of Pyrenophora teres. The plants remain in an incubation cabin at 20° C. and 100% relative atmospheric humidity for 48 hours.
The plants are then placed in a greenhouse at a temperature of about 20° C. and a relative atmospheric humidity of about 80%.
Evaluation is carried out 8 days after the inoculation. 0% means an efficacy which corresponds to that of the control, whereas an efficacy of 100% means that no infection is observed.

One may read the chromatographic logP as a lipophilicity value derived from retention on a column. Low values mean a more hydrophilic compound, high ones a more lipophilic compound.

The molecule `Cc1nn(C)c(F)c1C(=O)N(c1ccccc1C(C)CC(C)C)C1CC1` (stereo not drawn) [Compound 2] displayed a chromatographic logP in data set [1] of 3.74. The Efficacy in % in data set [2] and in data set [3] was 100% in each case.
`CC(C)CC(C)c1ccccc1N(C(=O)c1cn(C)nc1C(F)F)C1CC1` (stereo not drawn) [Compound 3, N-cyclopropyl-3-(difluoromethyl)-N-[2-(1,3-dimethylbutyl)phenyl]-1-methyl-1H-pyrazol-4-carboxamide] came in with a chromatographic logP in data set [1] of 3.89. In addition, the Efficacy in % is 94% in data set [2] and 100% in data set [3].
In turn, `Cc1nn(C)c(F)c1C(=O)N(c1ccccc1-c1ccc(Cl)cc1)C1CC1` [Compound 6] displayed a chromatographic logP in data set [1] of 3.22. For the same molecule, the values for the Efficacy in % in data set [4] and in data set [3] were 80% and 93%, respectively.
With `Cn1cc(C(=O)N(c2ccccc2-c2ccc(Cl)cc2)C2CC2)c(C(F)F)n1` [Compound 7], the chromatographic logP in data set [1] stood at 3.38. For the same molecule, the Efficacy in % in data set [2] was 89%; in data set [4], 95%.
Regarding `Cc1nn(C)c(F)c1C(=O)N(c1ccc(F)cc1-c1ccc(Cl)c(Cl)c1)C1CC1` [Compound 10], the chromatographic logP in data set [1] was determined as 3.74. Moreover, the Efficacy in % in data set [2] is reported as 89%; in data set [4], 95%.
`Cn1cc(C(=O)N(c2ccc(F)cc2-c2ccc(Cl)c(Cl)c2)C2CC2)c(C(F)F)n1` [Compound 11] displayed a chromatographic logP in data set [1] of 3.85. Further, in data set [2], the Efficacy in % stood at 94%.
In data set [1], `CC(C)CC(C)c1ccccc1NC1CC1` (stereo not drawn) [III-1, N-cyclopropyl-2-(1,3-dimethylbutyl)aniline] returned a chromatographic logP of 5.33.
